Test results taken from PMC8426237, “A first-in-human phase I study of TAS0728, an oral covalent binding inhibitor of HER2, in patients with advanced solid tumors with HER2 or HER3 aberrations” (Investigational New Drugs, 2021).

Assay: Phase I safety assessment: adverse events (CTCAE v5.0) in patients
[1] = 50-mg dose level cohort, 2 of 3
[2] = Dose Level 1: 50 mg BID (N = 3)
[3] = Dose Level 2: 100 mg BID (N = 3)
[4] = Dose Level 3: 200 mg BID (N = 7)

Experimental: A DLT was defined as a study treatment-related adverse event (TRAE), according to the Common Terminology Criteria for Adverse Events (CTCAE, Version 5.0), with qualifying criteria for certain DLTs (e.g., Grade ≥ 3 diarrhea, was included as a DLT only if lasting >48 h and unresponsive to intensive antidiarrheal medication).
Patients were closely monitored for these potential toxicities during the current study. Safety assessments included recording of AEs and serious AEs (SAEs) from the time of signing the study informed consent form to 30 days after the last dose of study medication. Safety parameters including laboratory evaluations (hematology, coagulation, chemistry, and urinalysis), vital sign measurements and body weight, electrocardiogram (ECG) recordings, ECOG performance status, echocardiogram or multi-gated acquisition (MUGA), and physical examination were assessed at screening, during the study and at 30 days following the last dose. The use of concomitant medications was permitted and details for such medications were recorded.

## C=CC(=O)N1CCC[C@@H](n2nc(C(=O)Nc3ccc(CC(=O)N(C)C)c(C)c3C)c3c(N)ncnc32)C1 [TAS0728]
50 mg BID (N = 3)
  Patients with AEs: 3 (100) n, (%)
  Patients with AEs that had an outcome of death: 0 n, (%)
  Patients with AEs that led to study treatment discontinuation: 0 n, (%)
  Patients with Grade ≥ 3 AEs: 2 (66.7) n, (%)
  Patients with SAEs: 1 (33.3) n, (%)
  Patients with treatment-related AEs: 3 (100) n, (%)
  Patients with treatment-related and Grade ≥ 3 AEs: 0 n, (%)
100 mg BID (N = 3)
  Patients with AEs: 3 (100) n, (%)
  Patients with AEs that had an outcome of death: 0 n, (%)
  Patients with AEs that led to study treatment discontinuation: 1 (33.3) n, (%)
  Patients with Grade ≥ 3 AEs: 0 n, (%)
  Patients with SAEs: 0 n, (%)
  Patients with treatment-related AEs: 3 (100) n, (%)
  Patients with treatment-related and Grade ≥ 3 AEs: 0 n, (%)
150 mg BID (N = 6)
  Patients with AEs: 6 (100) n, (%)
  Patients with AEs that had an outcome of death: 1 (16.7) n, (%)
  Patients with AEs that led to study treatment discontinuation: 1 (16.7) n, (%)
  Patients with Grade ≥ 3 AEs: 3 (50.0) n, (%)
  Patients with SAEs: 4 (66.7) n, (%)
  Patients with treatment-related AEs: 5 (83.3) n, (%)
  Patients with treatment-related and Grade ≥ 3 AEs: 2 (33.3) n, (%)
150 mg BID, after 1 cycle (21 days)
  Patients with fatal cardiac arrest (Grade 5): one
200 mg BID (N = 7)
  Patients with AEs: 7 (100) n, (%)
  Patients with AEs that had an outcome of death: 0 n, (%)
  Patients with AEs that led to study treatment discontinuation: 1 (14.3) n, (%)
  Patients with Grade ≥ 3 AEs: 4 (57.1) n, (%)
  Patients with SAEs: 3 (42.9) n, (%)
  Patients with treatment-related AEs: 6 (85.7) n, (%)
  Patients with treatment-related and Grade ≥ 3 AEs: 4 (57.1) n, (%)
1 in each of the 200-mg and 150-mg BID cohorts, ECOG 1 at baseline
  Patients who worsened to an ECOG status of 2: 2
1 patient of 19
  Treatment discontinuation due to AEs: 5.3%
  Treatment discontinuation due to fatal cardiac arrest: 5.3%
50-mg dose level cohort
  Patients with diarrhea at a severity ≥Grade 3: 1
[1]
  Patients with diarrhea: 66.7%
  Patients with hyperuricemia: 66.7%
100-mg dose level cohort, all 3
  Patients with diarrhea (all Grade 1 or Grade 2): 100%
200-mg dose
  Patients with diarrhea at a severity ≥Grade 3: 3
200-mg dose, 2/7
  Patients with asthenia: 28.6%
  Patients with decreased appetite: 28.6%
  Patients with dry skin: 28.6%
  Patients with edema peripheral: 28.6%
  Patients with hypokalemia: 28.6%
  Patients with nausea: 28.6%
  Patients with vomiting: 28.6%
200-mg dose, 3/7
  Patients with cough: 42.9%
  Patients with dermatitis acneiform: 42.9%
  Patients with fatigue: 42.9%
  Patients with pyrexia: 42.9%
200-mg dose, 5/7
  Patients with anemia: 71.4%
200-mg dose, 6 of 7
  Patients with diarrhea: 85.7%
[2]
  Adverse events experienced in ≥10% patients, Grade 1: 3 (100) n (%)
  Adverse events experienced in ≥10% patients, Grade 2: 1 (33.3) n (%)
  Adverse events experienced in ≥10% patients, Grade 3: 2 (66.7) n (%)
  Adverse events experienced in ≥10% patients, Grade 4: 1 (33.3) n (%)
  Adverse events experienced in ≥10% patients, Grade 5: 0 n (%)
  Adverse events experienced in ≥10% patients, Total: 3 (100) n (%)
  Adverse events experienced in ≥10% patients, ≥Grade 3: 2 (66.7) n (%)
  Diarrhea, Grade 1: 2 (66.7) n (%)
  Diarrhea, Grade 2: 1 (33.3) n (%)
  Diarrhea, Grade 3: 1 (33.3) n (%)
  Diarrhea, Grade 4: 0 n (%)
  Diarrhea, Grade 5: 0 n (%)
  Diarrhea, Total: 2 (66.7) n (%)
  Diarrhea, ≥Grade 3: 1 (33.3) n (%)
  Hyperuricemia, Grade 1: 2 (66.7) n (%)
  Hyperuricemia, Grade 2: 0 n (%)
  Hyperuricemia, Grade 3: 0 n (%)
  Hyperuricemia, Grade 4: 0 n (%)
  Hyperuricemia, Grade 5: 0 n (%)
  Hyperuricemia, Total: 2 (66.7) n (%)
  Hyperuricemia, ≥Grade 3: 0 n (%)
[3]
  Adverse events experienced in ≥10% patients, Grade 1: 3 (100) n (%)
  Adverse events experienced in ≥10% patients, Grade 2: 2 (66.7) n (%)
  Adverse events experienced in ≥10% patients, Grade 3: 0 n (%)
  Adverse events experienced in ≥10% patients, Grade 4: 0 n (%)
  Adverse events experienced in ≥10% patients, Grade 5: 0 n (%)
  Adverse events experienced in ≥10% patients, Total: 3 (100) n (%)
  Adverse events experienced in ≥10% patients, ≥Grade 3: 0 n (%)
  Diarrhea, Grade 1: 3 (100) n (%)
  Diarrhea, Grade 2: 1 (33.3) n (%)
  Diarrhea, Grade 3: 0 n (%)
  Diarrhea, Grade 4: 0 n (%)
  Diarrhea, Grade 5: 0 n (%)
  Diarrhea, Total: 3 (100) n (%)
  Diarrhea, ≥Grade 3: 0 n (%)
[4]
  Adverse events experienced in ≥10% patients, Grade 1: 6 (85.7) n (%)
  Adverse events experienced in ≥10% patients, Grade 2: 7 (100) n (%)
  Adverse events experienced in ≥10% patients, Grade 3: 4 (57.1) n (%)
  Adverse events experienced in ≥10% patients, Grade 4: 0 n (%)
  Adverse events experienced in ≥10% patients, Grade 5: 0 n (%)
  Adverse events experienced in ≥10% patients, Total: 7 (100) n (%)
  Adverse events experienced in ≥10% patients, ≥Grade 3: 4 (57.1) n (%)
  Anemia, Grade 1: 2 (28.6) n (%)
  Anemia, Grade 2: 3 (42.9) n (%)
  Anemia, Grade 3: 1 (14.3) n (%)
  Anemia, Grade 4: 0 n (%)
  Anemia, Grade 5: 0 n (%)
  Anemia, Total: 5 (71.4) n (%)
  Anemia, ≥Grade 3: 1 (14.3) n (%)
  Asthenia, Grade 1: 2 (28.6) n (%)
  Asthenia, Grade 2: 1 (14.3) n (%)
  Asthenia, Grade 3: 0 n (%)
  Asthenia, Grade 4: 0 n (%)
  Asthenia, Grade 5: 0 n (%)
  Asthenia, Total: 2 (28.6) n (%)
  Asthenia, ≥Grade 3: 0 n (%)
  Cough, Grade 1: 3 (42.9) n (%)
  Cough, Grade 2: 0 n (%)
  Cough, Grade 3: 0 n (%)
  Cough, Grade 4: 0 n (%)
  Cough, Grade 5: 0 n (%)
  Cough, Total: 3 (42.9) n (%)
  Cough, ≥Grade 3: 0 n (%)
  Decreased appetite, Grade 1: 1 (14.3) n (%)
  Decreased appetite, Grade 2: 1 (14.3) n (%)
  Decreased appetite, Grade 3: 0 n (%)
  Decreased appetite, Grade 4: 0 n (%)
  Decreased appetite, Grade 5: 0 n (%)
  Decreased appetite, Total: 2 (28.6) n (%)
  Decreased appetite, ≥Grade 3: 0 n (%)
  Dermatitis acneiform, Grade 1: 2 (28.6) n (%)
  Dermatitis acneiform, Grade 2: 1 (14.3) n (%)
  Dermatitis acneiform, Grade 3: 0 n (%)
  Dermatitis acneiform, Grade 4: 0 n (%)
  Dermatitis acneiform, Grade 5: 0 n (%)
  Dermatitis acneiform, Total: 3 (42.9) n (%)
